Laboratory results published in US5719287A, “Intermediates for inhibitors of HIV protease and method of preparation thereof” (Eli Lilly and Company, priority 1995, dated 1998).

Molecular target: T1, HIV-1 protease (Human immunodeficiency virus type 1 group M subtype B, UniProt P04585)
T1 construct: Purified HIV-1 protease was obtained as described below; made in house; host or cells: E. coli K12 L507/pHP10D (NRRL B-18560)
Assay: biochemical
Conditions: for IC50: read-out: Fluorescence Assay IC50 (converted)
Procedure: N^α -Biotin-[…]Ne-FITC)-OH
The purified peptide was labeled as follows with a fluorescent marker at the C-terminal end for use in the assay. N^α -Biotin-Gly-Ser-Gln-Asn-Tyr-Pro-lle-Val-Gly-Lys-OH (1.206 g, 0.936 mmoles) was dissolved in 100 mL of 0.1M sodium borate, pH 9.5 with stirring. Then, 3 g of fluorescein isothiocyanate (7.7 mmol) was dissolved in 15 mL dimethyl sulfoxide and the solution added to the reaction in 10 equal portions over the course of a two hour period. The reaction was allowed to proceed for a further one hour after the final addition had been made. The pH of the solution was adjusted to 3 with 5N HCl. A precipitate formed which was removed from the reaction by centrifugation.
Fluorescence HIV-1 Protease Inhibitor Assay Procedure.
To each well of a round bottom, 96-well plate is added 20 μl of the Enzyme Solution followed by 10 μl of the compound to be evaluated in 20% aqueous DMSO. Purified HIV-1 protease was obtained as described below. The solution is incubated for one hour at room temperature and then 20 μl of a solution of the substrate N^α -Biotin-[…]N^e -FITC)-OH, in MES-ALB buffer (1.5 μl/ml) is added to each well. The solutions are incubated for 16 hours at room temperature and thereafter to each well is added 150 μl of MES-ALB buffer.
To each well of a 96-well Pandex plate is added 25 μl of the Avidin Coated Beads Solution. Next, 25 μl of the diluted incubation solutions, described above, are added to each well of the Pandex plate. The solutions are mixed well and the plates are loaded into a Pandex® machine, washed, evacuated and read. Sample detection was performed by excitation at 485 nm and reading the resulting epifluorescence at 535 nm.
A culture of E. coli K12 L507/pHP10D was grown to mid-log phase at 32° C. in LB media containing 12.5 μg/ml tetracycline. The cultivation temperature was quickly elevated to 40° C. to induce gene expression, and the cells were allowed to grow for 2.5 hours at this temperature before the culture was quickly chilled on ice. The cells were centrifuged and the cell pellet was resuspended in 20 ml 50 mmol MES buffer (pH 6.0) containing 1 mmol EDTA, 1 mmol DTT, 1 mmol PMSF, and 10% glycerol (Buffer A). Cells were lysed by sonication using a Fischer Model 300 Dismembrator and a microtip probe. […] Enzymatic activity was measured by HPLC using the synthetic peptide SQNYPIV as described in Margolin et al., Biochem. Biophys. Res. Commun., 167, 554-560 (1990); the production of the pl peptide (SQNY) was measured.
Active fractions were pooled, made 1.2M in ammonium sulfate, and applied to a hexyl agarose column (2.0×18 cm) equilibrated in Buffer A containing 1.2M ammonium sulfate. The sample, in 125 ml (1.85 mg/ml), was loaded at a flow rate of 1 ml/min at 4° C. […] The column was then washed isocratically in Buffer A for 120 min. Active fractions were pooled, concentrated to 10 ml using an Amicon stirred cell with a YM-10 membrane, and applied at 1 ml/min to a MonoS cation exchange column (1.0×10 cm) equilibrated in Buffer A. After washing isocratically for 30 min, protease was eluted using a linear gradient of 0-0.45M NaCl in Buffer A over 40 min followed by an isocratic wash with Buffer A containing 0.45M NaCl over 30 min. Chromatography was performed at 25° C.
Pooled active fractions were concentrated to 200 ul using an Amicon stirred cell and a YM-10 membrane, and the protease was then applied to a Superose 6 size exclusion column equilibrated in Buffer A containing 0.1M NaCl. The column was washed isocratically in this buffer at a flow rate of 0.5 ml/min.

Row | IC50 | SMILES | Fluorescence Assay IC50 (purified HIV-1 protease, MES-ALB buffer pH 5.5, 1 h preincubation, 16 h with substrate, room temperature, IC50 values for Examples 2-70 are standardized relative to Ex 1)
1 | 0.0127 µM | CC(C)(C)NC(=O)c1cc2ccccc2cc1C[C@@H](O)[C@H](Cc1ccccc1)NC(=O)[C@H](CC(N)=O)NC(=O)c1ccc2ccccc2n1 (relative stereo) [Example 5, 1S-(1R*. 4R*, 5S*)]-N-(1-(2-amino-2-oxoethyl)-2-oxo-3-aza-4-phenylmethyl-5-hydroxy-6-(3-(1-t-butylamino-1-oxomethyl)-2-naphthyl)hexyl)-2-quinolinyl carboxamide] | –
2 | – | CC(C)(C)NC(=O)c1ccccc1C[C@@H](O)[C@H](Cc1ccccc1)NC(=O)[C@H](CC(N)=O)NC(=O)OCc1ccccc1 (relative stereo) [Example 11, [2R-(2R*, 3S*, 6S*)]-N-t-butyl-2-(2-hydroxy-3-phenylmethyl-4-aza-5-oxo-6-(2-amino-2-oxomethyl)-6-phenylmethoxycarbonyl)hexyl)benzamide] | 0.01 µg/mL
3 | 1.06 µM | CC(C)(C)NC(=O)c1ccccc1C[C@@H](O)[C@H](Cc1ccccc1)NC(=O)[C@H](CC(N)=O)NC(=O)C1Cc2ccccc2CN1 (single isomer, unassigned) [Example 36, [1S-(1R*, 4R*, 5S*)]-N-(1-(2-amino-2-oxoethyl)-2-oxo-3-aza-4-phenylmethyl-5-hydroxy-6-(2-(1-t-butylamino-1-oxomethyl)phenyl)hexyl)-3-(1,2,3,4-tetrahydroisoquinolinyl) carboxamide] | –
4 | 0.0342 µM | CC(C)(C)NC(=O)c1ccccc1C[C@@H](O)[C@H](Cc1ccccc1)NC(=O)[C@H](CC(N)=O)NC(=O)C1Cc2ccccc2CN1 (single isomer, unassigned) [Example 37, [1S-(1R*, 4R*, 5S*)]-N-(1-(2-amino-2-oxoethyl)-2-oxo-3-aza-4-phenylmethyl-5-hydroxy-6-(2-(1-t-butylamino-1-oxomethyl)phenyl)hexyl)-3-(1,2,3,4-tetrahydroisoquinolinyl) carboxamide] | –
5 | 0.0288 µM | CC(C)(C)NC(=O)c1ccccc1C[C@@H](O)[C@H](Cc1ccccc1)NC(=O)[C@H](CC(N)=O)NC(=O)c1ccc2ccccc2[n+]1[O-] [Example 7, [1S-(1R*, 4R*, 5S*)]-N-(1-(2-amino-2-oxoethyl)-2-oxo-3-aza-4-phenylmethyl-5-hydroxy-6-(2-(1-t-butylamino-1-oxomethyl)phenyl)hexyl)-1-oxo-2-quinolinyl carboxamide] | –
6 | 0.012 µM | CC(C)(C)NC(=O)c1ccccc1C[C@@H](O)[C@H](Cc1ccc(OCc2ccccc2)cc1)NC(=O)[C@H](CC(N)=O)NC(=O)c1ccc2ccccc2n1 [Example 9, [1S-(1R*, 4R*, 5S*)]-N-(1-(2-amino-2-oxoethyl)-2-oxo-3-aza-4-(4-phenylmethyloxy)phenylmethyl-5-hydroxy-6-(2-(1-t-butylamino-1-oxomethyl)phenyl)hexyl)-2-quinolinyl carboxamide] | –
7 | 0.0943 µM | CC(C)(C)NC(=O)c1ccccc1C[C@@H](O)[C@H](Cc1ccc(O)cc1)NC(=O)[C@H](CC(N)=O)NC(=O)c1ccc2ccccc2n1 [Example 10, [1S-(1R*, 4R*. 5S*) ]-N-(1-(2-amino-2-oxoethyl)-2-oxo-3-aza-4-(4-hydroxyphenyl)methyl-5-hydroxy-6-(2-(1-t-butylamino-1-oxomethyl)phenyl)hexyl)-2-quinolinyl carboxamide] | –
8 | 0.89 µM | CC(C)(C)NC(=O)c1ccccc1C[C@@H](O)[C@H](Cc1ccccc1)NC(=O)[C@H](CO)NC(=O)OCc1ccccc1 [Example 12, [2R-(2R*, 3S*, 6S*)]-N-t-butyl-2-(2-hydroxy-3-phenylmethyl-4-aza-5-oxo-6-hydroxymethyl-6-(N-phenylmethoxycarbonyl-amino)hexyl)benzamide] | –
9 | 0.0508 µM | CC(C)(C)C(=O)Nc1ccccc1C[C@@H](O)[C@H](Cc1ccccc1)NC(=O)[C@H](CC(N)=O)NC(=O)c1ccc2ccccc2n1 [Example 18, [1S-(1R*, 4R*, 5S*)]-N-(1-(2-amino-2-oxoethyl)-2-oxo-3-aza-4-phenylmethyl-5-hydroxy-6-(2-(2,2-dimethyl-1-oxopropylamino)phenyl)hexyl)-2-quinolinyl carboxamide] | –
10 | 0.00345 µM | CC(C)(C)NC(=O)c1ccccc1C[C@@H](O)[C@H](Cc1ccccc1)NC(=O)[C@H](CC(N)=O)NC(=O)c1ccc2ccccc2c1 [Example 19, [1S-(1R*, 4R*, 5S*)]-N-(1-(2-amino-2-oxoethyl)-2-oxo-3-aza-4-phenylmethyl-5-hydroxy-6-(2-(1-t-butylamino-1-oxomethyl)phenyl)hexyl)-2-naphthyl carboxamide] | –
11 | 0.00115 µM | CC(C)(C)NC(=O)c1ccccc1C[C@@H](O)[C@H](Cc1ccccc1)NC(=O)[C@H](CC(N)=O)NC(=O)c1cnc2ccccc2n1 [Example 20, [1S-(1R*, 4R*, 5S*)]-N-(1-(2-amino-2-oxoethyl)-2-oxo-3-aza-4-phenylmethyl-5-hydroxy-6-(2-(1-t-butylamino-1-oxomethyl)phenyl)hexyl)-2-quinoxalinyl carboxamide] | –
12 | 0.00418 µM | CC(C)(C)NC(=O)c1ccccc1C[C@@H](O)[C@H](Cc1ccccc1)NC(=O)[C@H](CC(N)=O)NC(=O)c1cc2ccccc2[nH]1 [Example 21, [1S-(1R*, 4R*. 5S*)]-N-(1-(2-amino-2-oxoethyl)-2-oxo-3-aza-4-phenylmethyl-5-hydroxy-6-(2-(1-t-butylamino-1-oxomethyl)phenyl)hexyl)-2-indolyl carboxamine] | –
13 | 0.0107 µM | CC(C)(C)NC(=O)c1ccccc1C[C@@H](O)[C@H](Cc1ccccc1)NC(=O)[C@H](CC(N)=O)NC(=O)c1cc2ccccc2s1 [Example 22, [1S-(1R*, 4R*, 5S*)]-N-(1-(2-amino-2-oxoethyl)-2-oxo-3-aza-4-phenylmethyl-5-hydroxy-6-(2-(1-t-butylamino-1-oxomethyl)phenyl)hexyl)-2-benzo[b]thienyl carboxamide] | –
14 | 0.000641 µM | Cc1ccc2ccc(C(=O)N[C@@H](CC(N)=O)C(=O)N[C@@H](Cc3ccccc3)[C@H](O)Cc3ccccc3C(=O)NC(C)(C)C)nc2c1 [Example 23, [1S-(1R*, 4R*, 5S*)]-N-(1-(2-amino-2-oxoethyl)-2-oxo-3-aza-4-phenylmethyl-5-hydroxy-6-(2-(1-t-butylamino-1-oxomethyl)phenyl)hexyl)-7-methylquinolin-2-yl carboxamide] | –
15 | 0.000481 µM | Cc1cccc2ccc(C(=O)N[C@@H](CC(N)=O)C(=O)N[C@@H](Cc3ccccc3)[C@H](O)Cc3ccccc3C(=O)NC(C)(C)C)nc12 [Example 24, [1S-(1R*, 4R*, 5S*)]-N-(1-(2-amino-2-oxoethyl)-2-oxo-3-aza-4-phenylmethyl-5-hydroxy-6-(2-(1-t-butylamino-1-oxomethyl)phenyl)hexyl)-8-methylquinolin-2-yl carboxamide] | –
16 | 0.00112 µM | Cc1cc(C(=O)N[C@@H](CC(N)=O)C(=O)N[C@@H](Cc2ccccc2)[C@H](O)Cc2ccccc2C(=O)NC(C)(C)C)nc2ccccc12 [Example 26, [1S-(1R*, 4R*, 5S*)]-N-(1-(2-amino-2-oxoethyl)-2-oxo-3-aza-4-phenylmethyl-5-hydroxy-6-(2-(1-t-butylamino-1-oxomethyl)phenyl)hexyl)-4-methylquinolin-2-yl carboxamide] | –
17 | 0.00818 µM | Cc1cc2ccccc2nc1C(=O)N[C@@H](CC(N)=O)C(=O)N[C@@H](Cc1ccccc1)[C@H](O)Cc1ccccc1C(=O)NC(C)(C)C [Example 27, [1S-(1R*, 4R*. 5S*) ]-N-(1-(2-amino-2-oxoethyl)-2-oxo-3-aza-4-phenylmethyl-5-hydroxy-6-(2-(1-t-butylamino-1-oxomethyl)phenyl)hexyl)-3-methylquinolin-2-yl carboxamide] | –
